Patent US20210337789A1, “Derivatives of m-Guaiacol, Their Preparation and Their Uses” (Universite de Caen Normandie, priority 2018, published 2021)

Columns and labels:
[1] = tested on: Streptococcus equi subsp zooepidemicus; experiment: Bacterial growth screening on wild-type phenotype strain, S. zooepidemicus; type: cell-based
Method: (§1) The bacterial growth is evaluated by measuring the optical density (DO) at 600 nm using NanoDrop.
(§2) This ratio permits a classification of the molecules in 4 effect levels: • 0=no effect observed; • 1=effect observed only when the molecule is tested pure; • 2=effect observed at several concentrations, but which gradually decreases the dilutions; • 3=strong effect observed at each concentration of molecule tested.
(§3) A screening of molecules of the invention on several wild-type phenotype strains has been carried out.
(§4) The strains initially selected are: • Gram+: Streptococcus equi subsp zooepidemicus and Staphylococcus aureus • Gram−: Escherichia coli, Klebsiella pneumoniae and Stenotrophomonas maltophila.

[2] = tested on: E. coli strains presenting high levels of resistance; experiment: Bacterial growth on E. coli strains presenting high levels of resistance; type: cell-based, Escherichia coli; set-up: key to Effects (0 < 1 < 2 < 3): 0 = no effect; 1 = pure only; 2 = several concs; 3 = strong at each; key to Δ DO: change in optical density measured at 600 nm; conditions: for Effects (0 < 1 < 2 < 3): molecules at 1, 0.5 and 0.1 mg/ml, triclosan at 0.1 mg/ml
Method: as §1, §2
(§5) Compounds of the invention were tested on 4 strains of E. coli, 3 strains of K. pneumoniae and 4 strains of S. aureus with the resistance profiles below.

[3] = tested on: S. aureus strains presenting high levels of resistance; experiment: Bacterial growth on S. aureus strains presenting high levels of resistance; type: cell-based, Staphylococcus aureus; set-up: key to Effects (0 < 1 < 2 < 3): 0 = no effect; 1 = pure only; 2 = several concs; 3 = strong at each; key to Δ DO: change in optical density measured at 600 nm; conditions: for Effects (0 < 1 < 2 < 3): molecules at 1, 0.5 and 0.1 mg/ml, triclosan at 0.1 mg/ml
Method: as §1, §2, §5

[4] = tested on: Stenotrophomonas maltophila; experiment: Bacterial growth screening on wild-type phenotype strain, S. maltophila; type: cell-based
Method: as §1, §2, §3, §4

Staphylococcus aureus = experiment: Bacterial growth screening on wild-type phenotype strain, S. aureus; type: cell-based
Method: as §1, §2, §3, §4

[5] = tested on: Micrococcus luteus reference strain; experiment: Bacterial growth (optical density at 600 nm) on Micrococcus luteus reference strain; type: cell-based; set-up: key: 0 = no effect, 1 = pure only, 2 = several concentrations, 3 = strong at all; conditions: in DMSO diluted in PBS, compared with triclosan
Method: as §1, §2
The molecules are put in a solution in DMSO and diluted in PBS.

[6] = tested on: KB cells (epidermoid carcinoma); experiment: In vitro cytotoxicity, cell proliferation test (MTS) on KB cells; type: cell-based; conditions: Homo sapiens, KB cells, triplicate, 72 hours of exposure, with respect to DMSO control, read-out: percentage of inhibition of cell growth
Method: The human cell strain KB (epidermoid carcinoma) was obtained from the NCI (National Cancer Institute) and cultivated in the D-MEM medium added with 10% of foetal bovine serum (Invitrogen) in the presence of penicillin, streptomycin and fungizone in flasks of […] under CO2 at 5%. The cells were deposited on tissue culture microplates with 96 wells and a density of 650 cells/well in 200 μl of medium and treated 24 hours later with compounds of the invention dissolved in DMSO at concentrations going from 0.5 nM to 10 μM using a Biomek 3000 (Beckman-Coulter) automaton. The controls received the same volume of DMSO (1% of final volume). After 72 hours of exposure, the MTS reagent (Celltiter 96Aqueous One solution, Promega) was added and incubated for 3 hours at 37° C.: the absorbance was measured at 490 nm and the results of inhibition of the cell proliferation were calculated according to the ratio [(1−(OD490treated/OD490control))×100].
Results: Cytotoxicity at 10^−5 and 10^−6M on Triplicate KB Cells, Measured after 72 Hours of Exposure.
The percentage of inhibition of cell growth with respect to the cells receiving the same quantity of DMSO is outlined in the table below.

[7] = tested on: K. pneumoniae strains presenting high levels of resistance; experiment: Bacterial growth on K. pneumoniae strains presenting high levels of resistance; type: cell-based, Klebsiella pneumoniae; set-up: key to Effects (0 < 1 < 2 < 3): 0 = no effect; 1 = pure only; 2 = several concs; 3 = strong at each; key to Δ DO: change in optical density measured at 600 nm; conditions: for Effects (0 < 1 < 2 < 3): molecules at 1, 0.5 and 0.1 mg/ml, triclosan at 0.1 mg/ml
Method: as §1, §2, §5

Escherichia coli = experiment: Bacterial growth screening on wild-type phenotype strain, E. coli; type: cell-based
Method: as §1, §2, §3, §4

## COc1cc(O)c(Br)c(Cl)c1F [sr7615]
[1]
  Effect level, S. zooepidemicus: 3
[2]; E. coli Strain 1, 0.1 mg/ml
  Δ DO: 0.047
[2]; E. coli Strain 1, 0.5 mg/ml
  Δ DO: 0.777
[2]; E. coli Strain 1, 1 mg/ml
  Δ DO: 0.896
[2]; E. coli Strain 1
  Effects (0 < 1 < 2 < 3): 2
[2]; E. coli Strain 2, 0.1 mg/ml
  Δ DO: 0.080
[2]; E. coli Strain 2, 0.5 mg/ml
  Δ DO: 0.886
[2]; E. coli Strain 2, 1 mg/ml
  Δ DO: 1.082
[2]; E. coli Strain 2
  Effects (0 < 1 < 2 < 3): 2
[2]; E. coli Strain 3, 0.1 mg/ml
  Δ DO: 0.029
[2]; E. coli Strain 3, 0.5 mg/ml
  Δ DO: 0.526
[2]; E. coli Strain 3, 1 mg/ml
  Δ DO: 0.882
[2]; E. coli Strain 3
  Effects (0 < 1 < 2 < 3): 2
[2]; E. coli Strain 4, 0.1 mg/ml
  Δ DO: 0.253
[2]; E. coli Strain 4, 0.5 mg/ml
  Δ DO: 0.809
[2]; E. coli Strain 4, 1 mg/ml
  Δ DO: 0.945
[2]; E. coli Strain 4
  Effects (0 < 1 < 2 < 3): 3
[3]; S. aureus Strain 1, 0.1 mg/ml
  Δ DO: 0.250
[3]; S. aureus Strain 1, 0.5 mg/ml
  Δ DO: 0.434
[3]; S. aureus Strain 1, 1 mg/ml
  Δ DO: 0.428
[3]; S. aureus Strain 1
  Effects (0 < 1 < 2 < 3): 3
[3]; S. aureus Strain 2, 0.1 mg/ml
  Δ DO: 0.308
[3]; S. aureus Strain 2, 0.5 mg/ml
  Δ DO: 0.412
[3]; S. aureus Strain 2, 1 mg/ml
  Δ DO: 0.382
[3]; S. aureus Strain 2
  Effects (0 < 1 < 2 < 3): 3
[3]; S. aureus Strain 3, 0.1 mg/ml
  Δ DO: 0.310
[3]; S. aureus Strain 3, 0.5 mg/ml
  Δ DO: 0.482
[3]; S. aureus Strain 3, 1 mg/ml
  Δ DO: 0.445
[3]; S. aureus Strain 3
  Effects (0 < 1 < 2 < 3): 3
[3]; S. aureus Strain 4, 0.1 mg/ml
  Δ DO: 0.351
[3]; S. aureus Strain 4, 0.5 mg/ml
  Δ DO: 0.450
[3]; S. aureus Strain 4, 1 mg/ml
  Δ DO: 0.418
[3]; S. aureus Strain 4
  Effects (0 < 1 < 2 < 3): 3
[4]
  Effect level, S. maltophila: 2
Staphylococcus aureus
  Effect level, S. aureus: 3
[5]
  Effect level: 3
[6]; 10^−5 M
  inhibition at 10 µM: 0%
[6]; 10^−6 M
  inhibition at 1 µM: 0%
[7]; K. pneumoniae Strain 1, 0.1 mg/ml
  Δ DO: 0.025
[7]; K. pneumoniae Strain 1, 0.5 mg/ml
  Δ DO: 0.490
[7]; K. pneumoniae Strain 1, 1 mg/ml
  Δ DO: 0.640
[7]; K. pneumoniae Strain 1
  Effects (0 < 1 < 2 < 3): 2
[7]; K. pneumoniae Strain 2, 0.1 mg/ml
  Δ DO: −0.021
[7]; K. pneumoniae Strain 2, 0.5 mg/ml
  Δ DO: 0.518
[7]; K. pneumoniae Strain 2, 1 mg/ml
  Δ DO: 0.621
[7]; K. pneumoniae Strain 2
  Effects (0 < 1 < 2 < 3): 2
[7]; K. pneumoniae Strain 3, 0.1 mg/ml
  Δ DO: 0.134
[7]; K. pneumoniae Strain 3, 0.5 mg/ml
  Δ DO: 0.598
[7]; K. pneumoniae Strain 3, 1 mg/ml
  Δ DO: 0.913
[7]; K. pneumoniae Strain 3
  Effects (0 < 1 < 2 < 3): 2
Escherichia coli
  Effect level, E. coli: 3
